Measured values published in patent US20180289637A1, “SUBSTITUTED CYCLOHEXANONES” (CLEXIO BIOSCIENCES LTD., priority 2016, published 2018).

Key:
SD male rats [1] = test: Forced Swim Test (rats), Example 12
[2] = in vivo; cited from earlier work
[3] = Stability of alpha-d2-(R/S)-ketamine in phosphate-buffered saline at various pH levels; format: physicochemical
Description: Incubations of (d2) (R/S)-ketamine (e.g., 1 μM) with PBS (pH 2.0, 7.4 and 8.4) were carried out using a Tecan Liquid Handling System (Tecan), or equivalent, at 37±1° C. in 0.2-mL incubation mixtures (final volume) containing PBS, at the final concentrations indicated in a 96-well plate format. The test article was added to the incubation mixtures in water. […] Incubations were carried out in triplicate with an exception for zero-time samples (which were incubated in quadruplicate). The samples were centrifuged (e.g., 920×g for 10 min at 10° C.) and the supernatant fractions analyzed by LC-MS/MS. Non-deuterated (d0) (R/S)-ketamine was used as an internal standard. The amount of unchanged test article and formation of non-deuterated (d0) (R/S)-ketamine was monitored based on peak area ratio of the analyte/internal standard.

NMDA receptor = details: inhibition of MK-801 binding; cited from earlier work
SD male rats [4] = test: Forced Swim Test (rats), Example 14; format: in vivo
Description: The compounds were prepared by a chemist and coded, so the researcher was blinded to the treatment.

[5] = Oral Single Dose PK Study in Rats
Description: Male SD rats, 3 per timepoint, alternative timepoints, were used. […] Plasma was sampled at 10 min, 30 min, 1 h, 2 h, 3 h, 4 h, 7 h, 12 h, 24 h, and 30 h. The PK of the parent compound (deuterated and non-deuterated), as well as norketamine (deuterated and non-deuterated), 6-OH-norketamine (deuterated and non-deuterated), and dehydronorketamine (deuterated and non-deuterated) were analyzed.

C57Bl/6 strain mice = test: Tail Suspension Test (mice), Example 13; details: 120 mg/kg oral gavage
[6] = In vitro metabolism in human liver microsomes; details: 30 min, 10 μM, listed as d2 S-ketamine
Description: (§1) Incubations were initiated by the addition of nicotinamine adenine dinucleotide phosphate (NADPH, 1 mM) and terminated by the addition of methanol. Samples were vortex mixed, stored on ice, and the samples were centrifuged at 1400×g for 5 minutes. Supernatants were removed from the microsome pellets and stored in new tubes at approximately −20° C. until analysis.
(§2) Metabolites generated in microsome incubation samples were characterized by LC-MS/MS using a LTQ Orbitrap XL with electrospray ionization in positive ion mode. Semi-quantitation of the metabolites present in the samples was based on LC MS peak areas of the putative metabolites.

[7] = In Vitro Liver Microsomal Stability Assay; details: 1 μM, 0.5 mg per mL liver microsomal protein, about 37° C.
Description: Test articles were added for a final assay concentration of 1 μM and incubated at about 37° C. Reactions were started by addition of the cofactor, and were stopped at four designated time points (0, 15, 30 and 60 min) by the addition of an equal volume of stop reagent (e.g., acetonitrile containing an internal standard, 0.2 mL). Samples were then centrifuged at 920×g centrifugal force for 10 min at 10° C. to precipitate the proteins. Supernatants were analysed by LC/MS/MS.

[8] = In vitro metabolism in rat liver microsomes; details: 15 min, 10 μM, listed as d2 S-ketamine
Description: as §1, §2

[9] = male, SD, rat, plasma, po, 15 mg/kg
[10] = male, SD, rat, plasma, po, 15 mg/kg, AUC0-t of Esketamine (deuterated and non-deuterated), 15 mg/kg p.o., rats
[11] = male, SD, rat, plasma, po, 15 mg/kg, AUC0-t, 15 mg/kg p.o., male SD rats
[12] = male, SD, rat, plasma, po, 60 mg/kg
[13] = male, SD, rat, plasma, po, 60 mg/kg, AUC0-t of Esketamine (deuterated and non-deuterated), 60 mg/kg p.o., rats
[14] = male, SD, rat, plasma, po, 60 mg/kg, AUC0-t, 60 mg/kg p.o., male SD rats

CNC1(c2ccccc2Cl)CCCCC1=O (racemic) [Ketamine, ketamine, reference compound]
reduction in immobility time by manual counting (SD male rats [1]; 30 mg/kg i.p., 30 min before test): 54%
elimination half-life [2]: 2 to 3 h

[2H]C1([2H])CCCC(NC)(c2ccccc2Cl)C1=O (racemic) [d2-ketamine, alpha-d2-(R/S)-ketamine]
Mean percent remaining (0 min) ([3]; PBS pH 2.0, 37±1° C.): 100%
Mean percent remaining (30 min) ([3]; PBS pH 2.0, 37±1° C.): 94.6%
Mean percent remaining (60 min) ([3]; PBS pH 2.0, 37±1° C.): 98.8%
Mean percent remaining (120 min) ([3]; PBS pH 2.0, 37±1° C.): 93.9%
Mean percent remaining (0 min) ([3]; PBS pH 7.4, 37±1° C.): 100%
Mean percent remaining (30 min) ([3]; PBS pH 7.4, 37±1° C.): 98.3%
Mean percent remaining (60 min) ([3]; PBS pH 7.4, 37±1° C.): 99.0%
Mean percent remaining (120 min) ([3]; PBS pH 7.4, 37±1° C.): 96.0%
Mean percent remaining (0 min) ([3]; PBS pH 8.4, 37±1° C.): 100%
Mean percent remaining (30 min) ([3]; PBS pH 8.4, 37±1° C.): 96.4%
Mean percent remaining (60 min) ([3]; PBS pH 8.4, 37±1° C.): 99.6%
Mean percent remaining (120 min) ([3]; PBS pH 8.4, 37±1° C.): 95.1%

NC1(c2ccccc2Cl)CCCCC1=O (racemic) [norketamine, N-desmethylketamine]
elimination half-life [2]: 4 h

N[C@]1(c2ccccc2Cl)CCCCC1=O [(S)-norketamine]
affinity for the NMDA receptor relative to the (R)-enantiomer (NMDA receptor): 8 times

CN[C@]1(c2ccccc2Cl)CCCCC1=O [Esketamine, S-ketamine, reference compound]
reduction in immobility time (SD male rats [4]; 30 mg/kg, 30 min before the test (route printed as orally, i.p. in table)): 60%
Dehydronorketamine as metabolite (in words) ([5]; 15 and 60 mg/kg p.o., rats): minor metabolite
Cmax [5, 9]: 200 ng/mL
Tmax [5, 9]: 0.5 h
AUC(0-t) [5, 10]: 183 ng·h/mL
AUC(0-t) [5, 11]: 183 ng·h/mL
Cmax [5, 12]: 165 ng/mL
AUC(0-t) [5, 13]: 498 ng·h/mL
AUC(0-t) ([5]; male, SD, rat, plasma, po, 60 mg/kg, AUC0-t of Esketamine, value in brackets (24 hr time point excluded), 60 mg/kg p.o., rats): 311 ng·h/mL
AUC(0-t) [5, 14]: 498 ng·h/mL
AUC(0-t) ([5]; male, SD, rat, plasma, po, 60 mg/kg, AUC0-t, 24 hr time point excluded, 60 mg/kg p.o., 24 hr time point excluded (7 hr was BLQ)): 311 ng·h/mL
adverse clinical symptoms (C57Bl/6 strain mice): adverse clinical symptoms of vocalization, ataxia and drowsiness
mortality (C57Bl/6 strain mice; 20 minutes after the oral gavage): One of the animals was found dead

[2H]C1([2H])CCC[C@](NC)(c2ccccc2Cl)C1=O [Example 1, (2S)-2-(2-chlorophenyl)-6,6-dideuterio-2-[deuterio(methyl)amino]cyclohexanone, deuterium chloride]
effect at 30 mg/kg (in words) (SD male rats [4]; 30 min before the test): less pronounced compared to the lower dose
reduction in immobility time (SD male rats [1]; 120 mg/kg p.o., 75-90 min after the treatment): ~25%
antidepressant-like effect on immobility time (in words) (SD male rats [1]; 60 or 120 mg/kg p.o., 75-90 min after the treatment): dose-response trend
6-OH norketamine levels (in words) ([5]; 15 and 60 mg/kg p.o., rats): lower
Dehydronorketamine as metabolite (in words) ([5]; 15 and 60 mg/kg p.o., rats): minor metabolite
Norketamine levels as compared to esketamine (in words) ([5]; 15 and 60 mg/kg p.o., rats): higher
Cmax [5, 9]: 136 ng/mL
AUC(0-t) [5, 10]: 114 ng·h/mL
AUC(0-t) [5, 11]: 114 ng·h/mL
Cmax [5, 12]: 163 ng/mL
AUC(0-t) [5, 13]: 268 ng·h/mL
AUC(0-t) [5, 14]: 268 ng·h/mL
plasma exposure to the parent compound (in words) ([5]; single oral administration of 15 or 60 mg/kg, male SD rats, S-ketamine D2 vs S-ketamine): essentially unchanged
% Peak Area, component S-ketamine (parent remaining) [6]: 33.6%
adverse clinical symptoms (C57Bl/6 strain mice): adverse clinical symptoms of vocalization, ataxia and drowsiness
increase in degradation half-life as compared to non-isotopically enriched ketamine [7]: 18%
% Peak Area, component S-ketamine (parent remaining) [8]: 2.6%
